Results published in publication PMC11845477, “Exploring the principles behind antibiotics with limited resistance” (Nature Communications, 2025).

Experiments:
[1] = system: E. coli ATCC 25922 (SEN) and E. coli NCTC13846 (MDR); assay: microbe, parasite or virus in culture; type: cell-based, Escherichia coli; conditions: for MIC: Escherichia coli, across three biological replicates
Method in brief: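 Cation-adj. MHB2 (not for SCH79797); 11–16-step dilution series; 5 × 10^5 cells/mL; 37 °C, shaking, 18 h; duplicates. Growth by OD600; MIC at OD600 < 0.05. Relative MIC: evolved vs ancestor.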

[2] = system: P. aeruginosa ATCC BAA-3107 (SEN) and P. aeruginosa LESB58 (MDR); assay: Adaptive laboratory evolution (ALE), relative MIC of evolved lines; type: cell-based, Pseudomonas aeruginosa; conditions: for Relative MIC (log10): PA-SEN (Pseudomonas aeruginosa ATCC BAA 3107)
Excerpt: Using the same set of bacterial strains, we initiated adaptive laboratory evolution with the aim to maximize the level of antibiotic resistance in the populations achieved during a longer, but fixed time period.
An established protocol for adaptive laboratory evolution[46],[73] was followed to propagate populations with the highest resistance levels. Starting with an antibiotic concentration that caused approximately 50% growth inhibition, ten parallel populations for each antibiotic-ancestor strain combination were grown for 72 hours at 37 °C with continuous shaking (300 RPM). MHB broth medium was used unless stated otherwise. After each incubation, 20 µl of each culture was transferred to four new wells containing fresh medium with increasing antibiotic concentrations (0.5×, 1×, 1.5×, and 2.5× the previous concentration) in a chessboard layout to monitor potential cross-contamination. Growth was monitored by measuring OD600 using a Biotek Synergy 2 microplate reader, and only populations grown in the highest drug concentration with an OD600 > 0.2 were transferred further.
A robotic liquid handling system was used to automatically prepare a 11 to 16-step serial dilution in 384-well microtiter plates (Greiner). A final concentration of 5 × 10^5 bacterial cells per mL were inoculated into each well containing 60 µL MHB medium. Bacterial cultures were incubated at 37 °C with continuous shaking (Infors shaker, 900 rpm with 3 mm throw) for 18 hours (2 replicates from each). Cell growth was monitored by measuring the optical density (OD600 values, using Biotek Synergy microplate reader). MIC was defined as the antibiotic concentration of complete growth inhibition (i.e., OD600 < 0.05). Relative MIC was calculated as follows:1 relativeMIC=MICevolved/MICancestor […]
Supplementary Figure 4. Resistance levels following adaptive laboratory evolution across bacterial strains. The level of resistance was measured as the fold change in relative MIC between evolved and ancestral strains after ~60 days of adaptive laboratory evolution. Data are grouped by bacterial strain (A. baumannii (AB), E. coli (EC), K. pneumoniae (KP), and P. aeruginosa (PA)) and categorized as either multidrug-resistant (MDR) or sensitive (SEN). Each data point represents a laboratory evolved line, and boxplots show the median, first and third quartiles, with whiskers indicating the 5th and 95th percentiles.
Statistical analysis was performed using two-sided Dunn’s post-hoc test with Benjamini-Hochberg correction for multiple comparisons (****/ ***/ **/ * indicates p < 0.0001/ 0.001/ 0.01/ 0.05). For detailed information on antibiotic and bacterial species, see Supplementary Table 1. For mode of action groups, refer to Table 1. Source data are provided as a Source Data file.

[3] = E. coli NCTC 13846 (EC-MDR), ancestor strain, sheet fig 2a
[4] = EC-SEN, Escherichia coli ATCC 25922, ancestor strain
[5] = Escherichia coli ATCC 25922 (EC-SEN), ancestor strain, sheet fig 2a
[6] = Escherichia coli ATCC 25922 (EC-SEN)
[7] = Escherichia coli NCTC 13846 (EC-MDR)
[8] = evolved line 2 adapted to the named antibiotic
[9] = evolved line 10 adapted to the named antibiotic
[10] = PA-SEN, Pseudomonas aeruginosa ATCC BAA 3107, evolved line 1
[11] = PA-SEN, Pseudomonas aeruginosa ATCC BAA 3107, evolved line 1 versus ancestor
[12] = PA-SEN, Pseudomonas aeruginosa ATCC BAA 3107, evolved line 2
[13] = PA-SEN, Pseudomonas aeruginosa ATCC BAA 3107, evolved line 2 versus ancestor
[14] = PA-SEN, Pseudomonas aeruginosa ATCC BAA 3107, evolved line 4
[15] = PA-SEN, Pseudomonas aeruginosa ATCC BAA 3107, evolved line 4 versus ancestor
[16] = PA-SEN, Pseudomonas aeruginosa ATCC BAA 3107, evolved line 6
[17] = PA-SEN, Pseudomonas aeruginosa ATCC BAA 3107, evolved line 6 versus ancestor
[18] = PA-SEN, Pseudomonas aeruginosa ATCC BAA 3107, evolved line 8
[19] = PA-SEN, Pseudomonas aeruginosa ATCC BAA 3107, evolved line 8 versus ancestor
[20] = PA-SEN, Pseudomonas aeruginosa ATCC BAA 3107, evolved line 9
[21] = PA-SEN, Pseudomonas aeruginosa ATCC BAA 3107, evolved line 9 versus ancestor
[22] = PA-SEN, Pseudomonas aeruginosa ATCC BAA 3107, evolved line 10
[23] = PA-SEN, Pseudomonas aeruginosa ATCC BAA 3107, evolved line 10 versus ancestor

With `CN(C)[C@@H]1C(O)=C(C(N)=O)C(=O)[C@@]2(O)C(O)=C3C(=O)c4c(O)c(NC(=O)CN5CCCC5)cc(F)c4C[C@H]3C[C@@H]12` [Eravacycline] the MIC of ancestor [1, 3] was 1 µg/mL, the MIC of ancestor [1, 4] was 0.125 µg/mL and the MIC of ancestor [1, 5] was 0.125 µg/mL. The MIC of ancestor ([1]; Escherichia coli NCTC 13846 (EC-MDR), ancestor strain) was 1 µg/mL, the MIC [1, 6] was 0.125 µg/mL and the MIC [1, 7] was 1 µg/mL. The “Relative MIC (log10)” value [2, 8] was 1.505, the “Relative MIC (log10)” value ([2]; evolved line 4 adapted to the named antibiotic) was 1.505 and the “Relative MIC (log10)” value ([2]; evolved line 5 adapted to the named antibiotic) was 1.806. For the same compound, the “Relative MIC (log10)” value ([2]; evolved line 7 adapted to the named antibiotic) was 1.204, the “Relative MIC (log10)” value [2, 9] was 1.505 and the MIC of evolved line [2, 10] was 128 µg/mL. The “Relative MIC” value [2, 11] was 32, the MIC of evolved line [2, 12] was 128 µg/mL and the “Relative MIC” value [2, 13] was 32. The MIC of evolved line ([2]; PA-SEN, Pseudomonas aeruginosa ATCC BAA 3107, evolved line 3) was 256 µg/mL, the “Relative MIC” value ([2]; PA-SEN, Pseudomonas aeruginosa ATCC BAA 3107, evolved line 3 versus ancestor) was 64 and the MIC of evolved line [2, 14] was 128 µg/mL. The “Relative MIC” value [2, 15] was 32, the MIC of evolved line ([2]; PA-SEN, Pseudomonas aeruginosa ATCC BAA 3107, evolved line 5) was 256 µg/mL and the “Relative MIC” value ([2]; PA-SEN, Pseudomonas aeruginosa ATCC BAA 3107, evolved line 5 versus ancestor) was 64. For the same compound, the MIC of evolved line [2, 16] was 128 µg/mL, the “Relative MIC” value [2, 17] was 32 and the MIC of evolved line ([2]; PA-SEN, Pseudomonas aeruginosa ATCC BAA 3107, evolved line 7) was 64 µg/mL. The “Relative MIC” value ([2]; PA-SEN, Pseudomonas aeruginosa ATCC BAA 3107, evolved line 7 versus ancestor) was 16, the MIC of evolved line [2, 18] was 64 µg/mL and the “Relative MIC” value [2, 19] was 16. For the same compound, the MIC of evolved line [2, 20] was 64 µg/mL, the “Relative MIC” value [2, 21] was 16 and the MIC of evolved line [2, 22] was 128 µg/mL. The “Relative MIC” value [2, 23] was 32, the “Relative MIC” value ([2]; Pseudomonas aeruginosa ATCC BAA 3107 (PA-SEN), evolved line 1) was 32 and the “Relative MIC” value ([2]; Pseudomonas aeruginosa ATCC BAA 3107 (PA-SEN), evolved line 2) was 32. The “Relative MIC” value ([2]; Pseudomonas aeruginosa ATCC BAA 3107 (PA-SEN), evolved line 3) was 64, the “Relative MIC” value ([2]; Pseudomonas aeruginosa ATCC BAA 3107 (PA-SEN), evolved line 4) was 32 and the “Relative MIC” value ([2]; Pseudomonas aeruginosa ATCC BAA 3107 (PA-SEN), evolved line 5) was 64. The “Relative MIC” value ([2]; Pseudomonas aeruginosa ATCC BAA 3107 (PA-SEN), evolved line 6) was 32, the “Relative MIC” value ([2]; Pseudomonas aeruginosa ATCC BAA 3107 (PA-SEN), evolved line 7) was 16 and the “Relative MIC” value ([2]; Pseudomonas aeruginosa ATCC BAA 3107 (PA-SEN), evolved line 8) was 16. The “Relative MIC” value ([2]; Pseudomonas aeruginosa ATCC BAA 3107 (PA-SEN), evolved line 9) was 16 and the “Relative MIC” value ([2]; Pseudomonas aeruginosa ATCC BAA 3107 (PA-SEN), evolved line 10) was 32.
In the case of `CNC(C)C1CCC(N)C(OC2C(N)CC(N)C(OC3OCC(C)(O)C(NC)C3O)C2O)O1` (stereo not shown) [Gentamicin], the MIC of ancestor [1, 3] is reported as 1 µg/mL, the MIC of ancestor ([1]; EC-MDR, Escherichia coli NCTC 13846, ancestor strain) is reported as 1 µg/mL and the MIC of ancestor [1, 4] is reported as 1 µg/mL. The MIC of ancestor [1, 5] was 1 µg/mL, the MIC [1, 6] was 1 µg/mL and the MIC [1, 7] was 1 µg/mL. The “Relative MIC (log10)” value ([2]; evolved line 1 adapted to the named antibiotic) was 2.107, the “Relative MIC (log10)” value [2, 8] was 1.806 and the “Relative MIC (log10)” value ([2]; evolved line 6 adapted to the named antibiotic) was 1.806. The “Relative MIC (log10)” value ([2]; evolved line 9 adapted to the named antibiotic) was 2.107, the “Relative MIC (log10)” value [2, 9] was 2.408 and the MIC of evolved line [2, 10] was 128 µg/mL. The “Relative MIC” value [2, 10] was 128, the “Relative MIC” value [2, 11] was 128 and the MIC of evolved line [2, 12] was 64 µg/mL. The “Relative MIC” value [2, 12] was 64, the “Relative MIC” value [2, 13] was 64 and the MIC of evolved line [2, 14] was 128 µg/mL. The “Relative MIC” value [2, 14] was 128, the “Relative MIC” value [2, 15] was 128 and the MIC of evolved line [2, 16] was 64 µg/mL. The “Relative MIC” value [2, 16] was 64, the “Relative MIC” value [2, 17] was 64 and the MIC of evolved line [2, 18] was 256 µg/mL. For the same compound, the “Relative MIC” value [2, 18] was 256, the “Relative MIC” value [2, 19] was 256 and the MIC of evolved line [2, 20] was 128 µg/mL. The “Relative MIC” value [2, 20] was 128, the “Relative MIC” value [2, 21] was 128 and the MIC of evolved line [2, 22] was 256 µg/mL. For the same compound, the “Relative MIC” value [2, 22] was 256 and the “Relative MIC” value [2, 23] was 256.
